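Compound exposure: 48 hours, 5 concentrations, 96-well plates. GI50: concentration for 50% inhibition of growth.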 Active and inactive are the calls of the source. Rule as the data show it: active = GI50 up to about 1.1 µM and inactive = higher.
Legend:
Assay in all cases: NCI-60 cell line screen, 48 h
HOP-92 = system: HOP-92
HCC 2998 = system: HCC 2998
MOLT-4 = system: MOLT-4
OVCAR-8 = system: OVCAR-8
UO-31 = system: UO-31
HCT-116 = system: HCT-116
K562 = system: K562
HCT-15 = system: HCT-15
SK-MEL-28 = system: SK-MEL-28
SK-OV-3 = system: SK-OV-3
HT-29 = system: HT-29
SNB-75 = system: SNB-75
SK-MEL-2 = system: SK-MEL-2
RPMI-8226 = system: RPMI-8226
SR = system: SR
SF-539 = system: SF-539
UACC-257 = system: UACC-257
SW-620 = system: SW-620
TK-10 = system: TK-10
OVCAR-4 = system: OVCAR-4

SMILES | GI50 (HOP-92) | GI50 (HCC 2998) | GI50 (MOLT-4) | GI50 (OVCAR-8) | GI50 (UO-31) | GI50 (HCT-116) | GI50 (K562) | GI50 (HCT-15) | GI50 (SK-MEL-28) | GI50 (SK-OV-3) | GI50 (HT-29) | GI50 (SNB-75) | GI50 (SK-MEL-2) | GI50 (RPMI-8226) | GI50 (SR) | GI50 (SF-539) | GI50 (UACC-257) | GI50 (SW-620) | GI50 (TK-10) | GI50 (OVCAR-4)
O=C1CCCC/C1=C1/SC(=N/c2ccccc2)/C(=N\c2ccccc2)N1c1ccccc1 | > 100 µM (inactive) | > 100 µM (inactive) | 34.2 µM (inactive) | > 100 µM (inactive) | 91.4 µM (inactive) | > 100 µM (inactive) | > 100 µM (inactive) | > 100 µM | > 100 µM (inactive) | > 100 µM (inactive) | > 100 µM (inactive) | 69.5 µM (inactive) | > 100 µM (inactive) | > 100 µM (inactive) | > 100 µM (inactive) |  |  |  |  | 
N/C(S)=N/N=C/c1cc(CN2CCOCC2)c(N)cn1 |  |  | 48.1 µM (inactive) | 18.5 µM (inactive) | 28.2 µM (inactive) | 61.8 µM (inactive) | 89.5 µM (inactive) | 15 µM |  | 53 µM (inactive) | 50.2 µM (inactive) | 25 µM (inactive) | 84.3 µM (inactive) | 79.8 µM (inactive) | 44.4 µM (inactive) | 27.5 µM (inactive) | 28.6 µM (inactive) | 62.1 µM (inactive) | 43.4 µM (inactive) | 
C=CCOC1OC(CS(=O)(=O)O)C(O)C(O)C1O (stereo not given) | > 100 µM (inactive) | > 100 µM (inactive) | > 100 µM (inactive) | > 100 µM (inactive) | > 100 µM (inactive) | > 100 µM (inactive) | 27 µM (inactive) | > 100 µM | > 100 µM (inactive) | > 100 µM (inactive) | > 100 µM (inactive) | > 100 µM (inactive) | > 100 µM (inactive) | > 100 µM (inactive) | > 100 µM (inactive) |  | > 100 µM (inactive) | > 100 µM (inactive) | > 100 µM (inactive) | > 100 µM (inactive)
O=C(NNC(=S)Nc1ccccc1)c1nsc2ccccc12 | 20.4 µM (inactive) | 55 µM (inactive) | 20.7 µM (inactive) | 28.6 µM (inactive) | 25.5 µM (inactive) | 25.2 µM (inactive) | 35.7 µM (inactive) | 10.7 µM | 34.6 µM (inactive) |  | 50 µM (inactive) | 25.1 µM (inactive) | 19.6 µM (inactive) | 16 µM (inactive) | 22 µM (inactive) | 31.3 µM (inactive) | 33.3 µM (inactive) | 40.6 µM (inactive) | 41.3 µM (inactive) | 96.8 µM (inactive)
CCN(CC)/[N+]([O-])=N/O | > 100 µM (inactive) | > 100 µM (inactive) | > 100 µM (inactive) | > 100 µM (inactive) | > 100 µM (inactive) | > 100 µM (inactive) | > 100 µM (inactive) | > 100 µM | > 100 µM (inactive) | > 100 µM (inactive) | > 100 µM (inactive) |  | > 100 µM (inactive) |  | > 100 µM (inactive) | > 100 µM (inactive) | > 100 µM (inactive) | > 100 µM (inactive) | > 100 µM (inactive) | 
CC(=O)c1ccccc1NP(=O)(c1ccccc1)c1ccccc1 |  | > 100 µM (inactive) | 32.1 µM (inactive) | > 100 µM (inactive) | 45.3 µM (inactive) | 53.2 µM (inactive) | 62.5 µM (inactive) | 66.4 µM | 67.9 µM (inactive) | 20.4 µM (inactive) | 47.1 µM (inactive) |  | 54.1 µM (inactive) | 16.6 µM (inactive) | 60 µM (inactive) | 70.3 µM (inactive) | 68.9 µM (inactive) | 97.7 µM (inactive) | 40.8 µM (inactive) | 27.5 µM (inactive)
CS(C)(=O)=Nn1c(=O)n2n(c1=O)C1c3ccccc3C2c2ccccc21 | > 100 µM (inactive) |  | > 100 µM (inactive) | > 100 µM (inactive) | > 100 µM (inactive) |  | > 100 µM (inactive) | > 100 µM | > 100 µM (inactive) | > 100 µM (inactive) | > 100 µM (inactive) |  | > 100 µM (inactive) | > 100 µM (inactive) | > 100 µM (inactive) | > 100 µM (inactive) | > 100 µM (inactive) | > 100 µM (inactive) | > 100 µM (inactive) | 
O=C(CCCn1cnc([N+](=O)[O-])n1)NCCn1ccnc1[N+](=O)[O-] | 61.7 µM (inactive) |  | > 100 µM (inactive) |  | > 100 µM (inactive) |  | > 100 µM (inactive) | > 100 µM | > 100 µM (inactive) | > 100 µM (inactive) | > 100 µM (inactive) | > 100 µM (inactive) | > 100 µM (inactive) | > 100 µM (inactive) | > 100 µM (inactive) |  | > 100 µM (inactive) | > 100 µM (inactive) | > 100 µM (inactive) | > 100 µM (inactive)
CSC1SCC2C(=O)N(C)C(C(C)C)C(=O)OCC(NC(=O)c3cnc4ccccc4n3)C(=O)NC(C)C(=O)N(C)C1C(=O)N(C)C(C(C)C)C(=O)OCC(NC(=O)c1cnc3ccccc3n1)C(=O)NC(C)C(=O)N2C (stereo not given) |  | 0.0075 µM (active) | 0.0075 µM (active) | 0.0075 µM (active) | 0.0083 µM (active) | 0.00885 µM (active) |  | 0.0101 µM |  | < 0.0147 µM (active) | 0.0075 µM (active) |  | 0.0178 µM (active) | 0.0075 µM (active) | 0.000171 µM (active) |  |  | 0.0075 µM (active) | 0.00152 µM (active) | 0.0075 µM (active)
COC(=O)CN(C)P(=O)(N1CC1)N1CC1 |  | > 100 µM (inactive) | 33 µM (inactive) | > 100 µM (inactive) | > 100 µM (inactive) |  | > 100 µM (inactive) | > 100 µM | > 100 µM (inactive) | > 100 µM (inactive) | > 100 µM (inactive) | > 100 µM (inactive) | > 100 µM (inactive) | > 100 µM (inactive) |  | > 100 µM (inactive) | > 100 µM (inactive) | > 100 µM (inactive) | > 100 µM (inactive) | > 100 µM (inactive)
Nc1nc2ccc3ccccc3c2[nH]1 |  | > 10 µM (inactive) | > 10 µM (inactive) | > 10 µM (inactive) | 5.66 µM (inactive) | > 10 µM (inactive) | > 10 µM (inactive) | > 10 µM | > 10 µM (inactive) | > 10 µM (inactive) | > 10 µM (inactive) | > 10 µM (inactive) | > 10 µM (inactive) | > 10 µM (inactive) | > 10 µM (inactive) | > 10 µM (inactive) |  | > 10 µM (inactive) | > 10 µM (inactive) | > 10 µM (inactive)
Cc1ccc(S(=O)(=O)NCCSS(=O)(=O)c2ccc(C)cc2)cc1 | > 100 µM (inactive) | 62.5 µM (inactive) | 26.8 µM (inactive) | 37.9 µM (inactive) | 28 µM (inactive) | 15.1 µM (inactive) | 30.7 µM (inactive) | 18.7 µM | 31.7 µM (inactive) | > 100 µM (inactive) | 22.6 µM (inactive) | 30.4 µM (inactive) |  |  | 13.9 µM (inactive) |  | 64.1 µM (inactive) | 19.5 µM (inactive) | > 100 µM (inactive) | > 100 µM (inactive)
CN(C)C(=O)Oc1c(Br)cc(Br)cc1C(=O)OCc1ccccc1 | 16.8 µM (inactive) | 36.1 µM (inactive) | 17.5 µM (inactive) | 32.4 µM (inactive) | 20.3 µM (inactive) | 14.5 µM (inactive) | 28.2 µM (inactive) | 26.2 µM | 40.2 µM (inactive) | 44.9 µM (inactive) | 13.5 µM (inactive) | 32 µM (inactive) | 27.7 µM (inactive) | 19.5 µM (inactive) |  | 26.6 µM (inactive) | 26.5 µM (inactive) | 41.1 µM (inactive) |  | 33 µM (inactive)
C1CSCCSCCSCCSC1 | > 100 µM (inactive) | > 100 µM (inactive) | > 100 µM (inactive) | > 100 µM (inactive) | > 100 µM (inactive) | > 100 µM (inactive) |  | > 100 µM | > 100 µM (inactive) | > 100 µM (inactive) | > 100 µM (inactive) | > 100 µM (inactive) | > 100 µM (inactive) | > 100 µM (inactive) |  | > 100 µM (inactive) | > 100 µM (inactive) | > 100 µM (inactive) | > 100 µM (inactive) | > 100 µM (inactive)
C[N+](C)(C)CCOC(=O)/C=C/c1c[nH]cn1 | 492 µM (inactive) | > 500 µM (inactive) | > 316 µM (inactive) | > 500 µM (inactive) | > 500 µM (inactive) | > 500 µM (inactive) | > 500 µM (inactive) | > 500 µM | > 500 µM (inactive) | > 500 µM (inactive) | > 500 µM (inactive) | > 500 µM (inactive) | > 500 µM (inactive) | > 500 µM (inactive) |  | > 500 µM (inactive) | > 500 µM (inactive) | > 500 µM (inactive) |  | > 500 µM (inactive)
CCNC(=S)NNC(=O)c1nsc2ccccc12 | 85.7 µM (inactive) | > 100 µM (inactive) | 50.9 µM (inactive) | > 100 µM (inactive) | 52.8 µM (inactive) | 96.8 µM (inactive) | 64.9 µM (inactive) | 38.2 µM | > 100 µM (inactive) |  | 72.1 µM (inactive) | 34.5 µM (inactive) | 2.88 µM (inactive) | 51.8 µM (inactive) | 64 µM (inactive) | > 100 µM (inactive) | > 100 µM (inactive) | > 100 µM (inactive) | > 100 µM (inactive) | > 100 µM (inactive)

Source: ChEMBL document CHEMBL1201862, “PubChem BioAssay data set” (2004)
